Experimental data: ChEMBL document CHEMBL1201862, “PubChem BioAssay data set” (2004)
Where a name gives a salt, the structure may show the parent alone.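 1) Cells in 96-well plates. 2) Compound, 48 h, 5 concentrations. 3) Linear interpolation between surrounding doses. 4) Unreached endpoint = highest concentration. GI50: concentration for 50% inhibition of growth.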 Active and inactive are the calls of the source. Cut-off read from the data, not from the text of the source: active = GI50 up to about 1.1 µM and inactive = higher.

Experiments:
Experiment in all cases: DTP human tumour cell line panel, 48 h
ACHN = test system: ACHN
COLO 205 = test system: COLO 205
EKVX = test system: EKVX
HL-60 = test system: HL-60
Hs-578T = test system: Hs-578T
KM12 = test system: KM12
LOX IMVI = test system: LOX IMVI
M14 = test system: M14
MDA-MB-231 = test system: MDA-MB-231
NCI-H226 = test system: NCI-H226
NCI-H23 = test system: NCI-H23
PC-3 = test system: PC-3
SK-MEL-28 = test system: SK-MEL-28
SK-MEL-5 = test system: SK-MEL-5
SK-OV-3 = test system: SK-OV-3
SN12C = test system: SN12C
T47D = test system: T47D
BT-549 = test system: BT-549
NCI-H522 = test system: NCI-H522
SK-MEL-2 = test system: SK-MEL-2

Compound | GI50 (ACHN) | GI50 (COLO 205) | GI50 (EKVX) | GI50 (HL-60) | GI50 (Hs-578T) | GI50 (KM12) | GI50 (LOX IMVI) | GI50 (M14) | GI50 (MDA-MB-231) | GI50 (NCI-H226) | GI50 (NCI-H23) | GI50 (PC-3) | GI50 (SK-MEL-28) | GI50 (SK-MEL-5) | GI50 (SK-OV-3) | GI50 (SN12C) | GI50 (T47D) | GI50 (BT-549) | GI50 (NCI-H522) | GI50 (SK-MEL-2)
COc1cccc2nc3ccccc3nc12 | 25.3 µM (inactive) | 90.2 µM (inactive) | 86.7 µM (inactive) | > 100 µM (inactive) | > 100 µM (inactive) | 74.1 µM (inactive) | 38.8 µM (inactive) | > 100 µM (inactive) | 67.6 µM (inactive) | 45.5 µM (inactive) | > 100 µM (inactive) | 25.5 µM (inactive) | > 100 µM (inactive) | 54.8 µM (inactive) | > 100 µM (inactive) | 71.4 µM (inactive) | 76 µM (inactive) | – | – | –
Cc1cc(C)c(N[S+]([O-])c2cccc(C(F)(F)F)c2)c(C)c1 (stereo unspecified) | > 100 µM (inactive) | > 100 µM (inactive) | – | > 100 µM (inactive) | – | > 100 µM (inactive) | – | > 100 µM (inactive) | – | > 100 µM (inactive) | > 100 µM (inactive) | > 100 µM (inactive) | > 100 µM (inactive) | – | – | > 100 µM (inactive) | > 100 µM (inactive) | > 100 µM (inactive) | – | –
COc1ccc(O)c(/C=N/CCC/N=C/c2cc(OC)ccc2O)c1 | 24.7 µM (inactive) | – | 20.2 µM (inactive) | 1.21 µM (inactive) | 24.5 µM (inactive) | 13.8 µM (inactive) | – | 37.2 µM (inactive) | 31.3 µM (inactive) | 27.4 µM (inactive) | 43.5 µM (inactive) | 24.5 µM (inactive) | 46.2 µM (inactive) | – | – | 30 µM (inactive) | – | 23.1 µM (inactive) | 46 µM (inactive) | 31.6 µM (inactive)
CC(C)c1cccc(C(C)C)c1NC(=O)C(=O)C1SC(=S)NC1=O (stereo unspecified) | > 100 µM (inactive) | > 100 µM (inactive) | > 100 µM (inactive) | > 100 µM (inactive) | – | > 100 µM (inactive) | > 100 µM (inactive) | > 100 µM (inactive) | – | > 100 µM (inactive) | > 100 µM (inactive) | – | > 100 µM (inactive) | > 100 µM (inactive) | > 100 µM (inactive) | > 100 µM (inactive) | – | – | > 100 µM (inactive) | > 100 µM (inactive)
C#CCOCC12C=CC(O1)C1C(=O)N(C)C(=O)C12 (stereo unspecified) | > 100 µM (inactive) | > 100 µM (inactive) | > 100 µM (inactive) | > 100 µM (inactive) | – | > 100 µM (inactive) | > 100 µM (inactive) | > 100 µM (inactive) | > 100 µM (inactive) | > 100 µM (inactive) | > 100 µM (inactive) | > 100 µM (inactive) | > 100 µM (inactive) | > 100 µM (inactive) | > 100 µM (inactive) | > 100 µM (inactive) | > 100 µM (inactive) | > 100 µM (inactive) | – | –
O=C1c2ccccc2C(=O)N1CC1S(=O)(=O)OCCOS1(=O)=O | > 100 µM (inactive) | > 100 µM (inactive) | > 100 µM (inactive) | > 100 µM (inactive) | > 100 µM (inactive) | – | > 100 µM (inactive) | > 100 µM (inactive) | > 100 µM (inactive) | > 100 µM (inactive) | > 100 µM (inactive) | > 100 µM (inactive) | > 100 µM (inactive) | > 100 µM (inactive) | > 100 µM (inactive) | > 100 µM (inactive) | > 100 µM (inactive) | – | > 100 µM (inactive) | –
O=C1ON=C2C3CC4CC12CC1(C3)C(=O)ON=C41 | > 100 µM (inactive) | > 100 µM (inactive) | > 100 µM (inactive) | > 100 µM (inactive) | – | > 100 µM (inactive) | > 100 µM (inactive) | > 100 µM (inactive) | > 100 µM (inactive) | > 100 µM (inactive) | > 100 µM (inactive) | > 100 µM (inactive) | > 100 µM (inactive) | > 100 µM (inactive) | – | > 100 µM (inactive) | – | > 100 µM (inactive) | > 100 µM (inactive) | > 100 µM (inactive)
CCOC(=O)/C(=C\c1cn(C(C)=O)c2ccccc12)P(C)(=O)OCC (stereo unspecified) | 26 µM (inactive) | 54.5 µM (inactive) | 33.3 µM (inactive) | > 100 µM (inactive) | – | 33.1 µM (inactive) | – | 16.7 µM (inactive) | 27.4 µM (inactive) | – | – | 52.5 µM (inactive) | 64.7 µM (inactive) | 47.5 µM (inactive) | 27.1 µM (inactive) | 26.8 µM (inactive) | 37.2 µM (inactive) | 22.3 µM (inactive) | 19.2 µM (inactive) | 39.8 µM (inactive)
OC(c1cc(C(O)(C(F)(F)F)C(F)(F)F)ncn1)(C(F)(F)F)C(F)(F)F | > 10 µM (inactive) | > 10 µM (inactive) | > 10 µM (inactive) | > 10 µM (inactive) | > 10 µM (inactive) | > 10 µM (inactive) | > 10 µM (inactive) | > 10 µM (inactive) | > 10 µM (inactive) | > 10 µM (inactive) | > 10 µM (inactive) | > 10 µM (inactive) | > 10 µM (inactive) | > 10 µM (inactive) | > 10 µM (inactive) | > 10 µM (inactive) | > 10 µM (inactive) | – | > 10 µM (inactive) | > 10 µM (inactive)
N#CC(C(=O)C(=O)Nc1ccc(Cl)c(Cl)c1)c1ccc(Cl)cc1 (stereo unspecified) | 83 µM (inactive) | 45.1 µM (inactive) | > 100 µM (inactive) | 47.2 µM (inactive) | – | > 100 µM (inactive) | 16.7 µM (inactive) | > 100 µM (inactive) | – | > 100 µM (inactive) | > 100 µM (inactive) | – | > 100 µM (inactive) | 74.8 µM (inactive) | > 100 µM (inactive) | 91 µM (inactive) | – | – | 25.2 µM (inactive) | 34.2 µM (inactive)
O=c1n(CCCN2CCN(c3cccc(Cl)c3)CC2)nc2n1-c1ccc3ccccc3c1SC2 | – | 4.4 µM (inactive) | 99.3 µM (inactive) | > 100 µM (inactive) | > 100 µM (inactive) | > 100 µM (inactive) | > 100 µM (inactive) | – | – | > 100 µM (inactive) | – | > 100 µM (inactive) | > 100 µM (inactive) | 6.01 µM (inactive) | > 100 µM (inactive) | > 100 µM (inactive) | – | > 100 µM (inactive) | > 100 µM (inactive) | > 100 µM (inactive)
O=C(Nc1nc(C23CC4CC(CC(C4)C2)C3)cs1)c1cc2cc([N+](=O)[O-])ccc2oc1=O | 47.3 µM (inactive) | 41 µM (inactive) | 53 µM (inactive) | > 100 µM (inactive) | 20.3 µM (inactive) | > 100 µM (inactive) | 47.1 µM (inactive) | – | 20.9 µM (inactive) | > 100 µM (inactive) | 77.1 µM (inactive) | 56.9 µM (inactive) | 75.5 µM (inactive) | 25.6 µM (inactive) | – | > 100 µM (inactive) | – | 14.3 µM (inactive) | > 100 µM (inactive) | –
CCN(CC)C(=O)c1cc([N+](=O)[O-])c(=O)n2c1[nH]c1ccccc12 | > 100 µM (inactive) | > 100 µM (inactive) | > 100 µM (inactive) | > 100 µM (inactive) | > 100 µM (inactive) | > 100 µM (inactive) | > 100 µM (inactive) | > 100 µM (inactive) | > 100 µM (inactive) | > 100 µM (inactive) | > 100 µM (inactive) | > 100 µM (inactive) | > 100 µM (inactive) | > 100 µM (inactive) | > 100 µM (inactive) | > 100 µM (inactive) | > 100 µM (inactive) | – | > 100 µM (inactive) | –
Cc1[nH]n(-c2nc(-c3ccccc3)cc(=O)[nH]2)c(=O)c1CCO | > 100 µM (inactive) | > 100 µM (inactive) | > 100 µM (inactive) | > 100 µM (inactive) | > 100 µM (inactive) | > 100 µM (inactive) | > 100 µM (inactive) | > 100 µM (inactive) | > 100 µM (inactive) | > 100 µM (inactive) | > 100 µM (inactive) | > 100 µM (inactive) | > 100 µM (inactive) | > 100 µM (inactive) | > 100 µM (inactive) | > 100 µM (inactive) | > 100 µM (inactive) | – | – | > 100 µM (inactive)
CN(C)CCOC(=O)COc1ccc(Cl)cc1 [CENTROPHENOXINE HYDROCHLORIDE] | > 100 µM (inactive) | > 100 µM (inactive) | > 100 µM (inactive) | – | – | > 100 µM (inactive) | > 100 µM (inactive) | > 100 µM (inactive) | > 100 µM (inactive) | > 100 µM (inactive) | > 100 µM (inactive) | > 100 µM (inactive) | > 100 µM (inactive) | > 100 µM (inactive) | > 100 µM (inactive) | > 100 µM (inactive) | > 100 µM (inactive) | – | > 100 µM (inactive) | > 100 µM (inactive)
C/C1=C/C(=O)O[C@@H]2C[C@@H](CC[C@H](C)/C=C\C=C\CC1)O[C@@](O)([C@@H]1CSC(=O)N1)C2 [LATRUNCULIN A] | 0.313 µM (active) | 0.18 µM (active) | 0.74 µM (active) | 3.28 µM (inactive) | 0.114 µM (active) | > 10 µM (inactive) | – | 0.565 µM (active) | 0.0834 µM (active) | 0.272 µM (active) | 2.14 µM (inactive) | 0.299 µM (active) | 1.12 µM (inactive) | 0.444 µM (active) | > 4.16 µM (inactive) | 0.428 µM (active) | – | 0.305 µM (active) | – | 5.25 µM (inactive)
